The source of these data is ChEMBL document CHEMBL4699396, “Macrocyclic peptidomimetics as inhibitors of insulin-regulated aminopeptidase (IRAP)” (RSC Med Chem, 2020).

This test concerns Insulin-regulated aminopeptidase (Homo sapiens). The experiment in a line: Binding affinity to recombinant full length human IRAP expressed in HEK293T cells assessed as binding free energy.

Turning to `N[C@H]1CC/C=C/CC[C@@H](C(=O)NCc2ccccc2CC(=O)O)NC(=O)C[C@H](Cc2ccc(O)cc2)NC1=O`, the deltaG is -12.4 kcal/mol.
Next, `N[C@H]1CC/C=C\CC[C@@H](C(=O)NCc2ccccc2CC(=O)O)NC(=O)C[C@H](Cc2ccc(O)cc2)NC1=O`: -10.7 kcal/mol.
